Reference: patent US12174190B2, “Combined markers for metastatic cancer and uses thereof” (Albert Einstein College of Medicine, priority 2017, dated 2024)

Tests used:
Type in all cases: in vivo, human
MenaCalc = MenaCalc expression in FNA biopsies by real-time RT-PCR before and after NAC with paclitaxel; details: FNA biopsies from 4 patients, before vs after 2 doses of neo-adjuvant paclitaxel; FIG. 5D
Protocol: (§1) FIG. 5A-5D. Neoadjuvant chemotherapy increases TMEM, MenaCalc and MenaINV scores in some breast cancer patients. Paclitaxel (and other cytotoxic chemotherapy) increases TMEM Score, MenaCalc and MenaINV expression in breast cancer patients treated with neoadjuvant chemotherapy (NAC). (A) Study design. (B) Individual TMEM scores of 20 patients before and after receiving NAC, which included weekly paclitaxel (80 mg/m^2×12 consecutive weeks) followed sequentially by dose-dense AC chemotherapy (doxorubicin 60 mg/m^2 and cyclophosphamide 600 mg/m^2 every 2 weeks×4 cycles, plus pegrastim 6 mg SC on day 2 of each cycle). Horizontal line; TMEM high-risk cutoff point. For each pair of bars, Pre-NAC scores are shown in the first bar in the pair and Post-NAC scores are shown in the second bar. […] (D) MenaCalc expression in fine needle aspiration (FNA) biopsies, as assessed by real-time RT-PCR from 4 patients before and after 2 doses of neo-adjuvant chemotherapy with paclitaxel. (E) MenaINV gene expression in FNA biopsy samples, as assessed by real-time RT-PCR, taken from 5 breast cancer patients before and after 2-weeks of receiving NAC with paclitaxel. […]
(§2) MenaCalc expression was determined in fine needle aspiration (FNA) biopsies, as assessed by real-time RT-PCR from 4 patients before and after 2 doses of neo-adjuvant chemotherapy with paclitaxel (see FIG. 5D). […]

MenaINV = MenaINV gene expression in FNA biopsy samples by real-time RT-PCR before and after NAC with paclitaxel; details: FNA biopsies from 5 breast cancer patients, before vs after 2 weeks of NAC with paclitaxel; FIG. 5E
Protocol: as §1, §2

[1] = tested on: TMEM (Tumor Microenvironment of Metastasis); test: TMEM score in breast cancers before and after neoadjuvant chemotherapy (NAC); details: 20 breast cancer patients, before vs after NAC (weekly paclitaxel 80 mg/m^2 x 12 weeks followed by dose-dense AC); FIG. 5B-C
Protocol: as §1, with “point.” for “point. For each pair of bars, Pre-NAC scores are shown in the first bar in the pair and Post-NAC scores are shown in the second bar.”
Individual TMEM scores of 20 patients were determined before and after receiving NAC, which included weekly paclitaxel (80 mg/m^2×12 consecutive weeks) followed sequentially by dose-dense AC chemotherapy (doxorubicin 60 mg/m^2 and cyclophosphamide 600 mg/m^2 every 2 weeks×4 cycles, plus pegrastim 6 mg SC on day 2 of each cycle) (see FIG. 5B). […]

CC(=O)O[C@H]1C(=O)[C@@]2(C)[C@H]([C@H](OC(=O)c3ccccc3)[C@]3(O)C[C@H](OC(=O)[C@H](O)[C@@H](NC(=O)c4ccccc4)c4ccccc4)C(C)=C1C3(C)C)[C@]1(OC(C)=O)CO[C@@H]1C[C@@H]2O [paclitaxel]
increases: MenaCalc expression (MenaCalc) | MenaINV expression (MenaINV) | TMEM Score [1]
